The values below come from publication PMC11578313, “Miniaturized Modular Click Chemistry‐enabled Rapid Discovery of Unique SARS‐CoV‐2 M^pro Inhibitors With Robust Potency and Drug‐like Profile” (Advanced Science, 2024).

“And” between values parts separate entries of the source, which are not always exact repeats. Equal values may be shown once. Read-outs that look alike come from different tables or passages of the source.

The test system of data set [1] is SARS‐CoV‐2. In words: microbe, parasite or virus in culture. It is filed as cell-based.
For data set [2], the system named is SARS‐CoV‐2 (hCoV‐19/Korea/KCDC06/2020, wild type). Briefly: microbe, parasite or virus in culture. Type of data set: cell-based.
The conditions of data set [3]: cytotoxicity; cited from earlier work.
The target in a further data set is SARS‐CoV‐2 M^pro (Severe acute respiratory syndrome coronavirus 2, UniProt P0DTD1). Briefly: SARS‐CoV‐2 main protease enzymatic assay (FRET inhibitor screening kit). It is filed as biochemical.
The nature of data set [4]: in vitro. The following applies: human.
The nature of data set [5]: in vitro. The following applies: African green monkey.
The test system of the next data set is SARS-CoV-2 M^pro. The following applies: cited from earlier work.
For data set [6] the following is noted: cited from earlier work.
Data set [7] deals with SARS‐CoV‐2. The following applies: Vero E6; cited from earlier work.
The subject of a further data set is HCoV‐NL63. Briefly: microbe, parasite or virus in culture. Particulars: Human coronavirus NL63, LLC-MK2, read-out: EC50 ± SD, HCoV‐NL63. Type of data set: cell-based.
Data set [8] concerns SARS‐CoV‐2 Delta (hCoV‐19/Korea/KDCA119861/2021). In words: microbe, parasite or virus in culture. The following applies: Severe acute respiratory syndrome coronavirus 2; Calu‐3; read-out: EC50 ± SD, SARS‐CoV‐2 Delta. Type of data set: cell-based.
The next data set relates to MRC‐5 cells. Particulars: human.
Data set [9] concerns SARS‐CoV‐2 Gamma (hCoV‐19/Korea/KDCA95637/2021). Briefly: microbe, parasite or virus in culture. Particulars: Severe acute respiratory syndrome coronavirus 2; Calu‐3; read-out: EC50 ± SD, SARS‐CoV‐2 Gamma. Type of data set: cell-based.
A further data set deals with HCoV‐229E. Briefly: microbe, parasite or virus in culture. Particulars: Human coronavirus 229E, MRC5, read-out: EC50 ± SD, HCoV‐229E. Type of data set: cell-based.
The next data set has as its system HCoV‐OC43. In words: microbe, parasite or virus in culture. Type of data set: cell-based. Particulars: Betacoronavirus 1, OC43, MRC5, read-out: EC50 ± SD, HCoV‐OC43.
Data set [10] can be described thus: in vitro. Particulars: human. This is another data set of the same source.
A short description of a further data set: in vivo. Particulars: ICR, mouse, po, p.o. 10 mg kg^−1 with 20 mg kg^−1 ritonavir, ICR mice, n = 3.
The test system of data set [11] is SARS‐CoV‐2 Omicron (hCoV‐19/Korea/KDCA447321/2021). In words: microbe, parasite or virus in culture. It is filed as cell-based. Particulars: Severe acute respiratory syndrome coronavirus 2, Calu-3, read-out: EC50 ± SD, SARS‐CoV‐2 Omicron.
The subject of a further data set is MERS‐CoV. In words: microbe, parasite or virus in culture. Particulars: Middle East respiratory syndrome-related coronavirus, Huh-7, read-out: EC50 ± SD, MERS‐CoV. It is filed as cell-based.
Data set [12] in a line: in vitro. The following applies: rhesus monkey.
Setting [13] is: Severe acute respiratory syndrome coronavirus 2, Vero cells, with CP‐100356, read-out: EC50 ± SD, Vero cells, with P‐gp inhibitor.
Setting [14] is: Severe acute respiratory syndrome coronavirus 2, Calu-3, Calu‐3 cells, with CP‐100356, read-out: EC50 ± SD, Calu‐3 cells, with P‐gp inhibitor.
Setting [15] is: Severe acute respiratory syndrome coronavirus 2, Calu-3, Calu‐3 cells, without CP‐100356, read-out: EC50 ± SD, Calu‐3 cells, without P‐gp inhibitor.

As a reminder, the IC50 is the concentration that gives 50% inhibition. Regarding `Cc1cncc(C(=O)N2C[C@H]3CC[C@@H](C2)N3C(c2cccc(F)c2)c2cccc(F)c2)c1` [AA‐625, reference compound], the EC50 was 2020 ± 76 nM in the data set with SARS‐CoV‐2 [1] (setting [13]); 2050 ± 56 nM in the data set with SARS‐CoV‐2 [1] (Severe acute respiratory syndrome coronavirus 2, Vero cells, without CP‐100356, read-out: EC50 ± SD, Vero cells, without P‐gp inhibitor); 148 ± 7 nM in [2] (Calu‐3 cells, without CP‐100356, read-out: EC50 ± SD, Calu‐3 cells, without P‐gp inhibitor); less than 10 nM in data set [2] (setting [14]); 150 nM in data set [2] (setting [15]). The CC50 in [3] was 22500 nM. For the same compound, the concentration for half-maximal inhibition (IC50) against SARS‐CoV‐2 M^pro was 900 nM and 904 nM. Also, on SARS‐CoV‐2 M^pro, the “inhibition of M^pro enzymatic activity, first round of screening” value is recorded as 57%. Also, the inhibition at 5 µM on SARS‐CoV‐2 M^pro (5 μM, read-out: Inhibitionrate at @5μM) was 87.9%. In addition, the CC50 at 2 day in the data set “in vitro [4]” (CC50 (Table 3), Calu‐3 cells) is 42900 ± 414 nM; in “in vitro [4]” (CC50, Calu‐3 cells, MTT assay), more than 100000 nM; in “in vitro [5]” it was 43900 ± 2940 nM.

Take `O=C(NCc1cccs1)C1CN(C(=O)c2cccnc2)CCN1c1ccc(Cl)c(Cl)c1` (centres unmarked) [GC‐14, reference compound]: the EC50 with SARS‐CoV‐2 [1] (setting [13]) was 3420 ± 443 nM; in [2] (setting [14]), 755 ± 46 nM; in data set [2] (setting [15]), 1420 ± 57 nM; with SARS‐CoV‐2 [7] it was 1100 nM. Further, the IC50 is 400 nM in the data set with SARS-CoV-2 M^pro; 800 nM and 750 nM against SARS‐CoV‐2 M^pro. Further, the “inhibition of M^pro enzymatic activity, first round of screening” value against SARS‐CoV‐2 M^pro amounted to 98%. Further, in [6], the “half‐life” value was 1.72 h. In addition, in data set [6], the oral bioavailability is reported as 7.2%. In addition, the CC50 at 2 day in the data set “in vitro [4]” (CC50, Calu‐3 cells, MTT assay) is more than 100000 nM.

Usually Cmax stands for the maximum level reached in the sampled fluid or tissue. The MRT is a mean duration of stay, worked out from the concentration-time curve. Usually half-life stands for how long it takes for the measured level to halve. The AUC is concentration integrated over time. For the compound `CC(C)(C)[C@H](NC(=O)C(F)(F)F)C(=O)N1C[C@H]2[C@@H]([C@H]1C(=O)N[C@H](C#N)C[C@@H]1CCNC1=O)C2(C)C` [Nirmatrelvir, reference compound], the EC50 in the data set on HCoV‐NL63 is more than 100000 nM; in the data set with SARS‐CoV‐2 [1] (Severe acute respiratory syndrome coronavirus 2, Vero, read-out: EC50 ± SD, Vero cells, with P‐gp inhibitor) it was less than 46 nM; with SARS‐CoV‐2 [1] (Severe acute respiratory syndrome coronavirus 2, Vero, read-out: EC50 ± SD, Vero cells, without P‐gp inhibitor), 2080 ± 214 nM; in [8], 3700 ± 598 nM; in data set [2] (Severe acute respiratory syndrome coronavirus 2, Calu-3, read-out: EC50, anti‐SARS‐CoV‐2 activity in Calu‐3 cells (Figure 3B)), 1950 nM; in data set [2] (Severe acute respiratory syndrome coronavirus 2, Calu-3, read-out: EC50 ± SD, Calu‐3 cells, with P‐gp inhibitor) it was less than 46 nM. Further, the EC50 in data set [2] (Severe acute respiratory syndrome coronavirus 2, Calu-3, read-out: EC50 ± SD, Calu‐3 cells, without P‐gp inhibitor) is 1000 ± 31 nM; in [2] (Severe acute respiratory syndrome coronavirus 2, Calu-3, read-out: EC50 ± SD, SARS‐CoV‐2 Wild‐type) it was 2780 nM; in data set [9] it was 3430 ± 519 nM; in the data set with HCoV‐229E it was 378 nM; in the data set on HCoV‐OC43 it was less than 46 nM; in data set [11] it was 3390 ± 245 nM. In addition, the EC50 in the data set with MERS‐CoV came out at 58 nM. Moreover, the CC50 in the data set on MRC‐5 cells, in the data set “in vitro [10]”, in “in vitro [4]” and in the data set “in vitro [12]” was more than 100000 nM throughout. Further, the CC50 at 2 day is more than 100000 nM in “in vitro [4]” (CC50 (Table 3), Calu‐3 cells); more than 100000 nM in “in vitro [4]” (CC50, Calu‐3 cells, MTT assay); more than 100000 nM in “in vitro [5]”. Besides, the Cmax in the data set “in vivo” (10 mg/kg, Cmax, p.o. in combination with ritonavir) was determined as 7450 ± 715 ng/mL. Also, the MRT in “in vivo” (10 mg/kg, MRT0‐t, p.o. in combination with ritonavir) stood at 1.55 ± 0.051 h; in the data set “in vivo” (10 mg/kg, MRT0‐∞, p.o. in combination with ritonavir), 1.55 ± 0.055 h. Moreover, the half-life in “in vivo” (10 mg/kg, t1/2, p.o. in combination with ritonavir) is 0.692 ± 0.204 h. The area under the curve (AUC) in “in vivo” (AUC0‐t, p.o. in combination with ritonavir) came out at 14600 ng·h/mL.
